According to ChEMBL document CHEMBL1201862, “PubChem BioAssay data set” (2004):
Values joined by “and” are separate entries in the source; they are usually repeats but may differ in a detail not shown here. Equal entries are not always repeated.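 Exposure lasted 48 hours, with cells grown in 96-well plates and compounds tested at five concentrations. GI50 marks 50% less growth.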 Active and inactive are the calls of the source. No stated cut-off is given here; in the data, active = GI50 up to about 1.1 µM and inactive = higher. Non-standard residues stand in square brackets, D forms with d. Residues, ends and D or L forms follow the SMILES beside them. ξ: configuration not given here. *: point of attachment. ξF = NC(Cc1ccccc1)C(=O)O; Cbz = O=C(OCc1ccccc1)*; Aib = CC(C)(N)C(=O)O

Experiments:
Assay in all cases: growth of human tumour cells (NCI), 48 h
A549 = system: A549
CAKI-1 = system: CAKI-1
HCT-15 = system: HCT-15
HOP-92 = system: HOP-92
HT-29 = system: HT-29
IGROV-1 = system: IGROV-1
NCI-H226 = system: NCI-H226
NCI-H23 = system: NCI-H23
OVCAR-3 = system: OVCAR-3
OVCAR-8 = system: OVCAR-8
RXF 393 = system: RXF 393
SF-268 = system: SF-268
SN12C = system: SN12C
SNB-75 = system: SNB-75
SW-620 = system: SW-620
U-251 = system: U-251
UACC-62 = system: UACC-62
UO-31 = system: UO-31
M14 = system: M14
HOP-62 = system: HOP-62

SMILES	GI50 (A549)	GI50 (CAKI-1)	GI50 (HCT-15) [µM]	GI50 (HOP-92)	GI50 (HT-29)	GI50 (IGROV-1)	GI50 (NCI-H226)	GI50 (NCI-H23)	GI50 (OVCAR-3)	GI50 (OVCAR-8)	GI50 (RXF 393)	GI50 (SF-268)	GI50 (SN12C)	GI50 (SNB-75)	GI50 (SW-620)	GI50 (U-251)	GI50 (UACC-62)	GI50 (UO-31)	GI50 (M14)	GI50 (HOP-62)
Nc1ccn(C2OC(COP(=O)(O)Oc3ccccc3)C(O)C2O)c(=O)n1 (stereo not given)	3.73 µM (inactive)	24.5 µM (inactive)	> 60	18.6 µM (inactive)	> 100 µM (inactive)	> 56.5 µM (inactive)	> 100 µM (inactive)	7.36 µM (inactive)	> 100 µM (inactive)	7.67 µM (inactive)	> 45.8 µM (inactive)	20 µM (inactive)	12.7 µM (inactive)	> 100 µM (inactive)	> 100 µM (inactive)	44.6 µM (inactive)	56.5 µM (inactive)	30.6 µM (inactive)	–	–
C/C(CCOC1CCCCO1)=C(\C)[Si](C)(C)C (stereo not given)	> 100 µM (inactive)	–	> 100	> 100 µM (inactive)	> 100 µM (inactive)	> 100 µM (inactive)	–	> 100 µM (inactive)	> 100 µM (inactive)	> 100 µM (inactive)	–	> 100 µM (inactive)	> 100 µM (inactive)	> 100 µM (inactive)	> 100 µM (inactive)	> 100 µM (inactive)	> 100 µM (inactive)	> 100 µM (inactive)	> 100 µM (inactive)	–
CC#CC(O)(C(=O)OC1CCC2CCC1N2C)C1CCCC1 (stereo not given)	> 100 µM (inactive)	> 100 µM (inactive)	> 100	–	> 100 µM (inactive)	> 100 µM (inactive)	> 100 µM (inactive)	> 100 µM (inactive)	> 100 µM (inactive)	> 100 µM (inactive)	> 100 µM (inactive)	> 100 µM (inactive)	> 100 µM (inactive)	> 100 µM (inactive)	> 100 µM (inactive)	> 10 µM (inactive)	> 100 µM (inactive)	> 100 µM (inactive)	> 100 µM (inactive)	> 100 µM (inactive)
c1cc(CNC2C3CCC(C3)C2c2c[nH]c3ccccc23)cc(CNC2C3CCC(C3)C2c2c[nH]c3ccccc23)c1 (stereo not given)	600 nM (active) and 773 nM (active)	1.65 µM (inactive) and 1.73 µM (inactive)	–	–	–	1.35 µM (inactive) and 1.59 µM (inactive)	2 µM (inactive) and 2.07 µM (inactive)	1.68 µM (inactive) and 1.77 µM (inactive)	1.76 µM (inactive) and 1.71 µM (inactive)	1.4 µM (inactive) and 1.46 µM (inactive)	1.22 µM (inactive) and 1.31 µM (inactive)	1.58 µM (inactive) and 1.53 µM (inactive)	–	752 nM (active) and 1.3 µM (inactive)	–	619 nM (active) and 615 nM (active)	1.81 µM (inactive) and 1.74 µM (inactive)	229 nM (active) and 160 nM (active)	667 nM (active) and 638 nM (active)	1.85 µM (inactive) and 1.77 µM (inactive)
Oc1ccc(Br)cc1/C=N/C1CCCCC1	> 100 µM (inactive)	> 100 µM (inactive)	5.56	72.1 µM (inactive)	42.3 µM (inactive)	24.1 µM (inactive)	–	34.4 µM (inactive)	13.1 µM (inactive)	20.5 µM (inactive)	> 100 µM (inactive)	10.6 µM (inactive)	< 0.01 µM (active)	–	24.8 µM (inactive)	12.4 µM (inactive)	32 µM (inactive)	33.8 µM (inactive)	34.8 µM (inactive)	45.4 µM (inactive)
CN(C)CCNc1ccc(NCC[N+](C)(C)Cc2ccc([N+](=O)[O-])cc2)c2c1C(=O)c1ccccc1C2=O	23.4 µM (inactive)	3.01 µM (inactive)	–	> 25 µM (inactive)	16.6 µM (inactive)	14.5 µM (inactive)	23.4 µM (inactive)	20.2 µM (inactive)	12 µM (inactive)	> 25 µM (inactive)	> 25 µM (inactive)	11.9 µM (inactive)	5.56 µM (inactive)	> 25 µM (inactive)	13.3 µM (inactive)	19.4 µM (inactive)	18.5 µM (inactive)	9.51 µM (inactive)	21.6 µM (inactive)	19.8 µM (inactive)
C=CCCCC12CCCc3cccc(c31)NC2=O (stereo not given)	20.2 µM (inactive)	–	–	13.8 µM (inactive)	–	17.1 µM (inactive)	20.6 µM (inactive)	18.1 µM (inactive)	18 µM (inactive)	–	17.6 µM (inactive)	–	32.4 µM (inactive)	–	20 µM (inactive)	22 µM (inactive)	16.8 µM (inactive)	30.4 µM (inactive)	14.4 µM (inactive)	34 µM (inactive)
CCOC(=O)N1CCC(=O)C(CNC23CC4CC(CC(C4)C2)C3)C1 (stereo not given)	> 100 µM (inactive)	> 10 µM (inactive)	–	20.7 µM (inactive)	22.4 µM (inactive)	–	> 100 µM (inactive)	61.4 µM (inactive)	–	21.2 µM (inactive)	17.2 µM (inactive)	> 100 µM (inactive)	> 100 µM (inactive)	–	19.8 µM (inactive)	> 100 µM (inactive)	> 100 µM (inactive)	51.5 µM (inactive)	–	> 100 µM (inactive)
COc1ccc(C2=Nn3c(nnc(Cc4ccc(Cl)cc4)c3=O)SC2)cc1	51.3 µM (inactive)	38.7 µM (inactive)	29	> 100 µM (inactive)	30.4 µM (inactive)	51.1 µM (inactive)	94 µM (inactive)	35.4 µM (inactive)	28.2 µM (inactive)	93.1 µM (inactive)	27.7 µM (inactive)	> 100 µM (inactive)	61.2 µM (inactive)	–	47.4 µM (inactive)	40.3 µM (inactive)	32.4 µM (inactive)	52.1 µM (inactive)	31.5 µM (inactive)	62.1 µM (inactive)
COc1ccc(N2C(=O)C(=O)N(C)C2=O)c2ccccc12	> 10 µM (inactive)	> 10 µM (inactive)	> 10	–	> 10 µM (inactive)	> 10 µM (inactive)	> 10 µM (inactive)	> 10 µM (inactive)	> 10 µM (inactive)	> 10 µM (inactive)	> 10 µM (inactive)	> 10 µM (inactive)	> 10 µM (inactive)	> 10 µM (inactive)	> 10 µM (inactive)	> 10 µM (inactive)	> 10 µM (inactive)	> 10 µM (inactive)	> 10 µM (inactive)	> 10 µM (inactive)
CCN(CC)CCn1c(=O)c2c(C)c3oc4ccccc4oc3c(C)c2c1=O	> 100 µM (inactive)	> 100 µM (inactive)	> 100	> 100 µM (inactive)	> 100 µM (inactive)	> 100 µM (inactive)	> 100 µM (inactive)	–	–	> 100 µM (inactive)	> 100 µM (inactive)	> 100 µM (inactive)	> 100 µM (inactive)	> 100 µM (inactive)	> 100 µM (inactive)	> 100 µM (inactive)	> 100 µM (inactive)	–	> 100 µM (inactive)	> 100 µM (inactive)
O=C1c2[nH]c3ccc(Br)cc3c2CCN1Cc1ccc(Cl)cc1	12.7 µM (inactive)	19.5 µM (inactive)	3.99	16.2 µM (inactive)	> 100 µM (inactive)	16.7 µM (inactive)	–	17.1 µM (inactive)	15.2 µM (inactive)	18.7 µM (inactive)	16.9 µM (inactive)	12.7 µM (inactive)	19.3 µM (inactive)	20.9 µM (inactive)	16.5 µM (inactive)	12.5 µM (inactive)	14.1 µM (inactive)	16.4 µM (inactive)	13.2 µM (inactive)	12.9 µM (inactive)
O=C(O)CSc1nnc(-c2ccc(O)cc2)[nH]1	> 100 µM (inactive)	> 100 µM (inactive)	> 100	> 100 µM (inactive)	> 100 µM (inactive)	> 100 µM (inactive)	> 100 µM (inactive)	> 100 µM (inactive)	> 100 µM (inactive)	> 100 µM (inactive)	–	> 100 µM (inactive)	> 10 µM (inactive)	41 µM (inactive)	> 100 µM (inactive)	> 100 µM (inactive)	> 100 µM (inactive)	> 100 µM (inactive)	> 100 µM (inactive)	> 100 µM (inactive)
COc1cc(CC2CCc3nc(N)nc(N)c3C2)cc(OC)c1OC (stereo not given)	0.0927 µM (active)	–	0.0925	26.5 µM (inactive)	> 34.8 µM (inactive)	0.131 µM (active)	> 24.3 µM (inactive)	0.698 µM (active)	8.85 µM (inactive)	> 32.7 µM (inactive)	0.0422 µM (active)	0.174 µM (active)	31.1 µM (inactive)	1.55 µM (inactive)	0.914 µM (active)	> 35.2 µM (inactive)	0.145 µM (active)	–	0.195 µM (active)	2.05 µM (inactive)
CCOC(=O)CNC(=O)C(Cc1ccccc1)NC(=O)C(C)(C)NC(=O)OCc1ccccc1 (stereo not given) (Cbz-[Aib]-[ξF]-Gly-OEt)	> 100 µM (inactive)	> 100 µM (inactive)	> 100	> 100 µM (inactive)	> 100 µM (inactive)	> 100 µM (inactive)	–	–	21.5 µM (inactive)	> 100 µM (inactive)	–	> 100 µM (inactive)	–	–	> 100 µM (inactive)	> 100 µM (inactive)	19.6 µM (inactive)	> 100 µM (inactive)	37.7 µM (inactive)	> 100 µM (inactive)
